Experimental data taken from ChEMBL document CHEMBL1944625, “Design and synthesis of 3,5-diarylpiperidin-2,6-diones as anticonvulsant agents” (Bioorg Med Chem Lett, 2012).

Experiments:
Mus musculus [1] = species on record: Mus musculus; experiment: Protection index, ratio of TD50 for Swiss albino mouse by rotarod test to ED50 for Swiss albino mouse by maximal electroshock test; format: functional
Mus musculus [2] = experiment: Anticonvulsant activity in Swiss albino mouse assessed as protection against maximal electroshock-induced seizures measuring inhibition of extension phase at 25 mg/kg, ip after 2 hrs; format: functional; conditions: route intraperitoneal
Mus musculus [3] = experiment: Neurotoxicity in Swiss albino mouse assessed as impair in motor coordination at 300 mg/kg, ip after 0.5 hrs by rotarod test; format: toxicity, organism-based; design: dose 300 mg/kg, route intraperitoneal; conditions: in vivo
Mus musculus [4] = experiment: Anticonvulsant activity in ip dosed Swiss albino mouse assessed as protection against maximal electroshock-induced seizures after 2 hrs; format: functional
[5] = Neurotoxicity in ip dosed Swiss albino mouse assessed as impair in motor coordination from 0.5 to 4 hrs post administration by rotarod test; format: toxicity, organism-based; conditions: in vivo
Mus musculus [6] = experiment: Neurotoxicity in Swiss albino mouse assessed as impair in motor coordination at 300 mg/kg, ip after 4 hrs by rotarod test; format: toxicity, organism-based; design: dose 300 mg/kg, route intraperitoneal; conditions: in vivo
Mus musculus [7] = experiment: Neurotoxicity in Swiss albino mouse assessed as impair in motor coordination at 100 mg/kg, ip after 0.5 hrs by rotarod test; format: toxicity, organism-based; design: dose 100 mg/kg, route intraperitoneal; conditions: in vivo

Row | Compound | Ratio TD50/ED50 (Mus musculus [1]) | inhibition in vivo at 25 mg/kg (Mus musculus [2]) [%] | Activity (Mus musculus [3]) | ED50 (Mus musculus [4]) [mg/kg] | TD50 [5] [mg/kg] | Activity (Mus musculus [6]) | Activity (Mus musculus [7])
1 | O=C1C(c2ccccc2Cl)CC(c2ccccc2Cl)C(=O)N1c1cccc(Cl)c1 (configuration not stated) | 1.8 | 43.7 | Non-toxic | 60.2 | 108 | Non-toxic | –
2 | O=C1NC(=O)C(c2ccccc2)CC1c1ccccc1 (configuration not stated) | 17.5 | 70.2 | Non-toxic | 11 | 193 | Non-toxic | –
3 | CN1C(=O)C(c2ccccc2)CC(c2ccccc2)C1=O (configuration not stated) | 21.8 | 69.1 | – | 14.8 | 323 | Toxic | Toxic
4 | O=C1C(c2ccccc2)CC(c2ccccc2)C(=O)N1c1ccccc1 (configuration not stated) | 3.7 | 38.3 | Toxic | 43.7 | 165 | Non-toxic | –
5 | O=C1C(c2ccccc2)CC(c2ccccc2)C(=O)N1Cc1ccccc1 (configuration not stated) | 15.6 | 64.5 | Non-toxic | 14 | 218 | Non-toxic | –
6 | NN1C(=O)C(c2ccccc2)CC(c2ccccc2)C1=O (configuration not stated) | 12.3 | 76 | Non-toxic | 10 | 123 | Non-toxic | –
7 | O=C1C(c2ccccc2)CC(c2ccccc2)C(=O)N1c1cccc(Cl)c1 (configuration not stated) | – | 32.2 | Toxic | > 100 | – | Non-toxic | –
8 | Cc1ccccc1N1C(=O)C(c2ccccc2)CC(c2ccccc2)C1=O (configuration not stated) | 4.9 | 66.1 | Toxic | 21.5 | 104 | Non-toxic | –
9 | Cc1ccc(N2C(=O)C(c3ccccc3)CC(c3ccccc3)C2=O)cc1 (configuration not stated) | 2.3 | 43.3 | – | 82 | 190 | Toxic | Toxic
10 | O=C1NC(=O)C(c2ccccc2Cl)CC1c1ccccc1Cl (configuration not stated) | 7 | 58.3 | Non-toxic | 25.5 | 175 | Non-toxic | –
11 | CN1C(=O)C(c2ccccc2Cl)CC(c2ccccc2Cl)C1=O (configuration not stated) | 9.2 | 61.7 | – | 23.7 | 220 | Toxic | Toxic
12 | O=C1C(c2ccccc2Cl)CC(c2ccccc2Cl)C(=O)N1c1ccccc1 (configuration not stated) | 3.2 | 40.6 | Non-toxic | 61.4 | 198 | Non-toxic | –
13 | O=C1C(c2ccccc2Cl)CC(c2ccccc2Cl)C(=O)N1Cc1ccccc1 (configuration not stated) | 2.7 | 58.2 | Non-toxic | 38.3 | 106 | Non-toxic | –
14 | NN1C(=O)C(c2ccccc2Cl)CC(c2ccccc2Cl)C1=O (configuration not stated) | 10.6 | 73.3 | Toxic | 11.2 | 117 | Toxic | –
15 | Cc1ccccc1N1C(=O)C(c2ccccc2Cl)CC(c2ccccc2Cl)C1=O (configuration not stated) | 8.3 | 60.6 | Non-toxic | 27.4 | 227 | Non-toxic | –
16 | Cc1ccc(N2C(=O)C(c3ccccc3Cl)CC(c3ccccc3Cl)C2=O)cc1 (configuration not stated) | 2.1 | 58.2 | Toxic | 41.2 | 86.5 | Non-toxic | –
17 | NC(=O)N1c2ccccc2C=Cc2ccccc21 [CARBAMAZEPINE] | 6.4 | – | – | 11.8 | – | – | –
18 | O=C1N=C(O)NC1(c1ccccc1)c1ccccc1 [PHENYTOIN SODIUM] | – | 80.7 | – | – | – | – | –
